# Patent publication US20130197069A1, “METHODS FOR TREATING STRESS INDUCED EMOTIONAL DISORDERS” (MASSACHUSETTS INSTITUTE OF TECHNOLOGY, priority 2007, published 2013)
# Entries after “also recorded” stand apart in the source; their conditions may differ. Where no end group is shown, it is not given here.
# What was measured:
# [1] = test system: Mice (Balb/c); experiment: Extinction of contextual freezing behavior after contextual fear conditioning; format: in vivo
# Experimental: Animals: Mice (Balb/c, 12 weeks old) were housed under standard conditions with access to food and water ad libitum. All mice were purchased from Taconic (Germantown, N.Y.). Behavior testing was performed in a way that the mice were either housed in a separated compartment but within the testing room or different rooms were used for housing and testing. In the latter case the mice were brought to the testing room before the procedure. Although it appears that the dynamics of extinction behavior are somewhat variable depending on the employed behavior facility, the trends remain the same in different experiments. All experiments were approved by the corresponding Animal Use and Care Committee.
# (§1) Extinction of contextual freezing behavior: Extinction and reminder shock procedures were performed as described before^6. In brief, mice were exposed to contextual fear conditioning (3 min context followed by at mild electric foot shock, 2 s, 0.7 mA). In some experiments a tone (30 s, 10 kHz, 75 dB SPL) was presented for 30 s before the shock. Extinction was performed on consecutive days. An extinction trial consisted of a 3 min re-exposure to the conditioning context.
# Surgery/injection: Microcannula were purchased custom made from PlasticOne. The gauge of the guide and injection cannulae was 26 and 28, respectively. To insert cannulae into the dorsal hippocampus the coordinates AP −1.5 mm, lateral 1 mm, depth 2 mm were used as described before^18. To insert cannulae icy the coordinates AP +0.5 mm, lateral 1 mm, depth 2 mm were used. Butyrolactone I and roscovitine were dissolved and injected as described before^18. Rac-1 inhibitor was dissolved in aCSF and delivered bilaterally (0.5 μl/side) over a 1 min period. The correct localization of the cannulae was verified at the end of an experiment by methyleneblue injection. The cis-tronic Herpes Virus expressing GFP and dnPAK-1 or GFP alone was injected into the hippocampus bilaterally (0.5 μl/side) over a 2 min period. DnPAK-1 consisted of the DNA encoding amino acid 83-149 of PAK-1.
# To test for a role of Cdk5 activity during extinction of learned fear, mice were implanted with microcannulae into the dorsal hippocampus (i.h.) and trained in the contextual fear conditioning paradigm. Fear conditioning consisted of a 3 min context exposure followed by a single electric foot shock ([…], constant current, 2 s). Subsequently, all mice were subjected to a daily extinction trial (E) on 6 consecutive days (E1-E6). Each extinction trial consisted of a 3 min re-exposure to the conditioned context without presenting the foot-shock again.
# [2] = target: T1, hippocampal Cdk5 (Mus musculus, UniProt P49615); experiment: Hippocampal Cdk5 activity measured by histone H1 phosphorylation; format: in vivo, mice
# T1 construct: from tissue; host or cells: hippocampus of Balb/c mice
# T1 sequence (P49615 whole entry): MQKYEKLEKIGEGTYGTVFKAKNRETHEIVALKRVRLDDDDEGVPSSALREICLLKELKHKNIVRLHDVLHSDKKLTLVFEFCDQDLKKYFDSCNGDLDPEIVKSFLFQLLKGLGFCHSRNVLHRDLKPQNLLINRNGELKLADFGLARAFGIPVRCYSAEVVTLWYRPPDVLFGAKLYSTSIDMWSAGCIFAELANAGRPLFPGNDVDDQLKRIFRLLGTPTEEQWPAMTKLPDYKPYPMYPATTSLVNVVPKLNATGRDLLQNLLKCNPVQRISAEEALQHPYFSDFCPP
# T1 sequence (P61809 2-307 partner limits assumed): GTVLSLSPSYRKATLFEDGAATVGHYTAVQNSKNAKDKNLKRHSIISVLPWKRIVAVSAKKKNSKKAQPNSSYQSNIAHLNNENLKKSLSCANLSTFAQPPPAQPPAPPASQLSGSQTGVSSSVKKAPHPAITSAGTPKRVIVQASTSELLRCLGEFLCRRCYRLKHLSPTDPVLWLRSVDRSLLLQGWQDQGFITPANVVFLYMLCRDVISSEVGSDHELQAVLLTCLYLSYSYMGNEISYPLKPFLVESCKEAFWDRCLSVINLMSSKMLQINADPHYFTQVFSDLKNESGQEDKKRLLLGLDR
# Experimental: (§2) In agreement with previous data the recovery of the fear response is rarely complete and may indicate that unlearning and new learning may coexist during extinction^29 30. […] In contrast, when butyrolactone I (50 ng) was administered 3 h after E1, freezing behavior was indistinguishable between butyrolactone I- and vehicle-injected mice (FIG. 1f). We estimated that the employed concentrations of butryrolactone I and roscovitine permit a specific inhibition of Cdk5. However high levels of those drugs may also affect Erk-1/2 kinases^31. […] Moreover, freezing behavior is not generally affected.
# [3] = test system: MAP kinase signaling pathway; experiment: MAP kinase signaling pathway in hippocampus after injection; format: in vivo, mice; conditions: 50 ng into hippocampus
# Experimental: as §2
# [4] = test system: Mice (Balb/c); experiment: Extinction of amygdala-dependent cued fear; format: in vivo; conditions: intrahippocampal injection
# Experimental: as §1, §2
# [5] = test system: PAK-1; experiment: Immunoblot of PAK-1, PAK-1T212 and PAK-1T423 in hippocampal membrane and cytosolic fractions; format: in vivo, mice
# Experimental: (§3) Immunoblot analysis: Immunoblot analysis was performed as described before^19. The antibody detecting pPAK-1Thr212 was used in a 1:250 dilution.
# (§4) Anti-PAK-1 was from Santa Cruz (Santa Cruz, Calif.). All other antibodies were used in a 1:1000 dilution. pPAK-1Thr423 (Cell Signaling, Danvers, Mass.) synaptophysin (Sigma, St. Louis, Mo.), GAPDH and Rac-1 were from Upstate (Lake Placid, N.Y.), Cdk5 (J3) and p35 (C-19) were from Santa Cruz.
# First, we measured PAK-1 phosphorylation at threonine 212 during extinction because this site is phosphorylated by p35/Cdk5^33. […] We also analyzed the activity of PAK-1 using a phospho-T423 antibody against PAK-1^37 in hippocampal lysates prepared from naïve mice and from mice 0.5 h after E1 or E3 by immunoblotting. We detected a significant increase in membrane associated PAK-1Thr423 levels after E3, when compared to E1 (FIG. 4b).
# (§5) Next, we set out experiments to determine if the regulation of PAK-1 activity during extinction depended on the activities of Rac-1 and Cdk5/p35. To this end, lysates prepared from mice that were injected with a Rac-1 inhibitor or vehicle (as described under FIG. 3c) were analyzed by immunoblot. […] Consistently, PAK-1 levels increased in the cytosol of mice treated with Rac-1 inhibitor.
# To investigate the impact of Cdk5/p35 activity on PAK-1 function during extinction, mice were implanted with microcannulae into the lateral ventricles and injected with 50 ng butyrolactone I immediately after E1. Because a single injection of butyrolactone I after E1 was sufficient to facilitate extinction (see FIG. 1d), hippocampal lysates were prepared 0.5 h after E1 and analyzed by immunoblotting using PAK-1 antibodies (FIG. 5a). […] In contrast, PAK-1T423 levels increased in lysates obtained from butyrolactone I injected mice (FIG. 5 b, c).
# [6] = test system: Rac1 interaction with Rac1-specific GEFs TrioN, GEF-H1 and Tiam1; conditions: Gao et al (2001) J. Biol. Chem. 276 47530; cited from earlier work
# [7] = test system: p35/Cdk5; experiment: Immunoblot of p35/Cdk5 in hippocampal membrane and cytosolic fractions; format: in vivo, mice; conditions: icv 10 μg/μl after E1-E3, fractions 0.5 h after E3
# Experimental: as §3, §4
# To this end, microcannuale were implanted into the lateral ventricles of mice that were subsequently trained by contextual fear conditioning and exposed to our extinction paradigm. Immediately after E1-E3 mice were injected with a Rac-1 inhibitor^35 (NSC23760; 10 μg/μl) or vehicle. Hippocampal membrane and cytosolic fractions were prepared 0.5 h after E3 and analyzed by immunoblot.
# [8] = test system: p35 co-immunoprecipitated with PAK-1; experiment: Co-immunoprecipitation of PAK-1 and p35 from hippocampal lysates; format: in vivo, mice; conditions: Rac-1 inhibitor icv; 0.5 h after E3
# Experimental: Membrane and cytosolic fractions were prepared form the hippocampus of mice 0.5 h after exposure to E1, E3 or from naïve animals and analyzed for the levels of the Cdk5 substrate PAK-1 by immunoblotting. […] In the cytosolic fraction pPAK-1T423 levels decreased after E1 when compared to naïve mice but increased back to baseline levels after E3. c. Hippocampal cytosolic and membrane fractions were prepared on E3 0.5 h after mice were injected (icv) with either vehicle or Rac-1 inhibitor. […] The same lysates as described under (c) were used to immunoprecipitate PAK-1. An HA antibody served a control for unspecific binding of proteins to the proteinA agarose beads. The precipitates were immunoblotted with antibodies against PAK-1 and p35. […] Error bars indicate S.E.M.
# as §5
# [9] = 50 ng immediately after E1, fractions 0.5 h later
# [10] = 50 ng immediately after E1, fractions 0.5 h later, listed as Butyrolactone I
# [11] = Rac-1 inhibitor icv, 0.5 h after E3, cytosolic fraction
# [12] = Rac-1 inhibitor icv, 0.5 h after E3, membrane fraction
molecule,measurement,setting,value
COC(=O)[C@@]1(Cc2ccc(O)c(CC=C(C)C)c2)OC(=O)C(O)=C1c1ccc(O)cc1 [butyrolactone I],freezing behavior / extinction vs. vehicle group,"[1]; 12.5 ng i.h. after E1-E3, listed as butyrolactone 1",no significant effect on the reduction of freezing behavior
same,freezing behavior / extinction vs. vehicle group,[1]; 25 ng i.h. after E1-E3,Extinction was similar in vehicle and butyrolactone I injected mice
same,freezing behavior / extinction vs. vehicle group,"[1]; 25 ng i.h. after E1-E3, listed as butyrolactone 1",no significant effect on the reduction of freezing behavior
same,freezing behavior / extinction vs. vehicle group,[1]; 50 ng i.h. 3 h after E1,indistinguishable
same,freezing behavior / extinction vs. vehicle group,"[1]; 50 ng i.h. 3 h after E1, listed as butyrolacone I",no significant effect on extinction
same,freezing behavior vs. vehicle group,[1]; 50 ng i.h. immediately after E1-E3,reduced freezing behavior on E2 and E3
same,freezing behavior vs. vehicle group,"[1]; 50 ng i.h. immediately after E1-E3, listed as butyrolactone 1",significantly reduced freezing behavior on E2 and E3
same,freezing behavior vs. vehicle group,[1]; 50 ng injected 1 h after E1,significant reduction of freezing behavior on E2
same,reinstatement of freezing behavior by reminder shock procedure,[1]; after 50 ng i.h. following E1-E3,able to reinstate freezing behavior
same,freezing behavior during the extinction trial,[1]; intrahippocampal injection 15 min before extinction trial 1 or 2,did not affect freezing behavior during the extinction trial
same,freezing behavior vs. vehicle group,[1]; single injection i.h. 50 ng immediately after E1,significantly diminished freezing behavior on the subsequent extinction trials
same,freezing behavior vs. vehicle group,"[1]; single injection i.h. 50 ng immediately after E1, listed as butyrolactone",significant reduction of freezing behavior on E2
same,hippocampal Cdk5 activity (histone H1 phosphorylation),[2]; 12.5 ng i.h.,did not reduce hippocampal Cdk5 activity
same,hippocampal Cdk5 activity (histone H1 phosphorylation),[2]; 25 ng i.h.,did not reduce hippocampal Cdk5 activity
same,effect on MAP kinase signaling pathway,[3],did not affect the MAP kinase signaling pathway
same,extinction of amygdala-dependent cued fear,[4],did not affect extinction of amygdala-dependent cued fear
same,PAK-1T212 levels in the cytosolic fraction vs. vehicle,[5]; [9],significantly reduced
same,PAK-1T212 levels in the membrane fraction vs. vehicle,[5]; [9],reduced
same,distribution of total PAK-1 between membrane and cytosol vs. vehicle,[5]; [9],re-distribution of total PAK-1 from the membrane to the cytosol
same,PAK-1T212 levels in the cytosolic fraction vs. vehicle,[5]; [10],decreased
same,PAK-1T212 levels in the membrane fraction vs. vehicle,[5]; [10],decreased
same,distribution of total PAK-1 between membrane and cytosol vs. vehicle,"[5]; 50 ng immediately after E1, fractions 0.5 h later, listed as butyrolactone",significant re-distribution of PAK-1 from the membrane to the cytosol
same,PAK-1T423 levels vs. vehicle,"[5]; 50 ng immediately after E1, fractions 0.5 h later, membrane fraction (FIG. 5c)",significantly increased
CC[C@H](CO)Nc1nc(NCc2ccccc2)c2ncn(C(C)C)c2n1 [roscovitine],freezing behavior vs. vehicle group,[1]; roscovitine i.h. 50 ng into dorsal hippocampus immediately after E1-E3,reduced freezing behavior
MVDGKPVNLGLWDTAG [Rac1 Inhibitor W56],inhibition of Rac1 interaction with Rac1-specific GEFs,[6],selectively inhibits
CCN(CC)CCCC(C)Nc1nc(C)cc(Nc2ccc3nc(C)cc(N)c3c2)n1 (stereo not drawn) [NSC23760],freezing behavior vs. vehicle group,[1]; icv 10 μg/μl immediately after E1-E3,significant reduction of freezing behavior; also recorded: reduced freezing
same,membrane associated p35 and Cdk5 levels / distribution vs. vehicle,[7],dramatic redistribution of membrane associated p35 and Cdk5 to the cytosol
same,membrane associated p35 and Cdk5 levels / distribution vs. vehicle,[7]; listed as Rac-1 inhibitor,significant reduction of membrane-associated Cdk5/p35
same,PAK-1 levels in the cytosol vs. vehicle,[5]; [11],increased
same,cytosolic PAK-1T212 levels vs. vehicle,[5]; [11],decreased
same,membrane associated PAK-1T212 levels vs. vehicle,[5]; [12],dramatic reduction; also recorded: significant reduction
same,membrane associated PAK-1 levels vs. vehicle,[5]; [12],dramatic reduction; also recorded: significant reduction
same,amount of p35 co-immunoprecipitated with PAK-1 vs. vehicle,[8],reduced amount of p35 co-immunoprecipitated with PAK-1; also recorded: Much less p35 co-immunoprecipitated with PAK-1
